Results: patent publication US20240034743A9, “TRICYCLIC COMPOUNDS AS EGFR INHIBITORS” (QILU PHARMACEUTICAL CO., LTD., priority 2020, published 2024)
Like-named read-outs stand apart in the source and are kept apart here.

Assays:
[1] = biological target: EGFR WT (wild type EGFR) (Homo sapiens (Human), UniProt P00533); test: In vitro enzymatic TR-FRET (HTRF KinEASE-TK) kinase assay, EGFR WT; assay type: biochemical
Method: (I) In Vitro Enzymatic Experiment for EGFR WT and EGFR L858R/T790M/C797S
In the assay, the inhibition effect of the compound on the kinase activity of EGFR WT (wild type EGFR) and EGFR L858R/T790M/C797S was tested by adopting a time-resolved fluorescence resonance energy transfer (TR-FRET) method, and half maximal inhibitory concentration IC50 of the compound on the kinase activity of EGFR was obtained.
EGFR recombinase and EGFR L858R/T790M/C797S recombinase, purchased from Signalchem.
HTRF KinEASE-TK kit, purchased from Cisbio.
DTT, MnCl2, and MgCl2, purchased from Sigma.
ATP, purchased from Promega.
(§1) Brigatinib, purchased from Selleck.
1) 1× working solution was prepared: 5 mM MgCl2; 1 mM DTT; 1 mM MnCl2 and 1× kinase buffer (in kit).
2) […] of gradiently-diluted compound was transferred to a 384-well plate using Echo 550 (Labcyte).
3) 5 μL of 2× EGFR WT or EGFR L858R/T790M/C797S recombinase solution was added to the 384-well plate, and the plate was incubated at room temperature for 10 min.
4) 5 μL of 2× TK-substrate-biotin substrate solution (containing ATP) was added to the 384-well plate, and the plate was incubated at room temperature for 40 min.
5) 5 μL of assay solution containing Sa-XL 665 HTRF and 5 μL of TK-antibody-Cryptatewas were added to the plate, and the plate was incubated at room temperature for 1 h.
6) The fluorescence signal values at 615 nm and 665 nm were measured for each well using an Envision microplate reader (PerkinElmer).
7) The ratio of fluorescence signal values at 665 nm and 615 nm was calculated for each well.
8) Data analysis was performed using GraphPad Prism software to give the IC50 for compounds.

[2] = test system: Ba/F3_L858R/T790M/C797S cells; test: Ba/F3_L858R/T790M/C797S cell proliferation inhibition assay (CellTiter-Glo); assay type: cell-based; conditions: Mus musculus
Method: Ba/F3_L858R/T790M/C797S Cell Proliferation Inhibition Assay
In the assay, the inhibition effect of the compounds on the proliferation of Ba/F3_L858R/T790M/C797S cells was tested by adopting a CellTiter-Glo method, and the concentration IC50 of the compound for inhibiting half maximal growth of cells was obtained.
Ba/F3_L858R/T790M/C797S cells were constructed by Pharmaron Beijing Co., Ltd.
1640 medium, fetal bovine serum (FBS), Penicillin-Streptomyces, and GlutaMAX-I Supplement, purchased from GIBCO.
as §1
(§2) CellTiter-Glo reagent, purchased from Promega.
1) Ba/F3_L858R/T790M/C797S cells were seeded in a 384-well plate at a density of 700 cells/well with 30 μL/well.
(§3) 2) Day 0: […] of gradiently-diluted compounds to be tested with a final concentration of DMSO of 0.1% was added to plate using Echo, and the plate was incubated in a cell incubator for 72 h (37° C., 5% CO2). […] of DMSO was added into each well in blank control group.
(§4) 3) Day 3: 30 μL Cell Titer-Glo reagent was added to each well, and the plate was in the dark under room temperature for 30 min.
(§5) 4) The chemiluminescent signal was detected by an Envision plate reader (PerkinElmer).
(§6) 5) Data analysis was performed using GraphPad Prism software to give the IC50 for compounds.

[3] = test system: A431 cells (EGFR WT); test: A431 cell proliferation inhibition assay (CellTiter-Glo); assay type: cell-based; conditions: Homo sapiens
Method: A431 Cell Proliferation Inhibition Assay
In the assay, the inhibition effect of the compounds on the proliferation of A431 cells was tested by adopting a CellTiter-Glo method, and the concentration IC50 of the compound for inhibiting half maximal growth of cells was obtained.
A431 cells, purchased from ATCC.
DMEM medium, fetal bovine serum (FBS), and Penicillin-Streptomycin, purchased from GIBCO.
as §1, §2
1) A431 cells were seeded in a 384-well plate at a density of 800 cells/well with 30 μL/well, and the plate was cultured in a cell incubator for 24 h (37° C., 5% CO2).
as §3, §4, §5, §6

[4] = test system: Ba/F3_Del19/T790M/C797S cells; test: Ba/F3_Del19/T790M/C797S cell proliferation inhibition assay (CellTiter-Glo); assay type: cell-based; conditions: Mus musculus
Method: Ba/F3_Del19/T790M/C797S Cell Proliferation Inhibition Assay
In the assay, the inhibition effect of the compounds on the proliferation of Ba/F3_Del19/T790M/C797S cells was tested by adopting a CellTiter-Glo method, and the concentration IC50 of the compound for inhibiting half maximal growth of cells was obtained.
Ba/F3_Del19/T790M/C797S, purchased from Kyinno Biotechnology Co., Ltd. 1640 medium, fetal bovine serum (FBS), Penicillin-Streptomyces, and GlutaMAX-I Supplement, purchased from GIBCO.
as §1, §2
1) Ba/F3_Del19/T790M/C797S cells were seeded in a 384-well plate at a density of 700 cells/well with 30 μL/well.
as §3, §4, §5
Data analysis was performed using GraphPad Prism 6 software to give the IC50 for compounds.

[5] = kinase activity, TR-FRET, read-out: EGFR (WT) IC50
[6] = BaF3, cell proliferation, 72 h, CellTiter-Glo, read-out: Ba/F3 (L858R/T790M/C797S) IC50
[7] = A-431, cell proliferation, 72 h, CellTiter-Glo, read-out: A431 EGFR WT IC50
[8] = BaF3, cell proliferation, 72 h, CellTiter-Glo, read-out: Ba/F3 (Del19/T790M/C797S) IC50

EGFR WT (wild type EGFR), sequence (P00533 25-1210): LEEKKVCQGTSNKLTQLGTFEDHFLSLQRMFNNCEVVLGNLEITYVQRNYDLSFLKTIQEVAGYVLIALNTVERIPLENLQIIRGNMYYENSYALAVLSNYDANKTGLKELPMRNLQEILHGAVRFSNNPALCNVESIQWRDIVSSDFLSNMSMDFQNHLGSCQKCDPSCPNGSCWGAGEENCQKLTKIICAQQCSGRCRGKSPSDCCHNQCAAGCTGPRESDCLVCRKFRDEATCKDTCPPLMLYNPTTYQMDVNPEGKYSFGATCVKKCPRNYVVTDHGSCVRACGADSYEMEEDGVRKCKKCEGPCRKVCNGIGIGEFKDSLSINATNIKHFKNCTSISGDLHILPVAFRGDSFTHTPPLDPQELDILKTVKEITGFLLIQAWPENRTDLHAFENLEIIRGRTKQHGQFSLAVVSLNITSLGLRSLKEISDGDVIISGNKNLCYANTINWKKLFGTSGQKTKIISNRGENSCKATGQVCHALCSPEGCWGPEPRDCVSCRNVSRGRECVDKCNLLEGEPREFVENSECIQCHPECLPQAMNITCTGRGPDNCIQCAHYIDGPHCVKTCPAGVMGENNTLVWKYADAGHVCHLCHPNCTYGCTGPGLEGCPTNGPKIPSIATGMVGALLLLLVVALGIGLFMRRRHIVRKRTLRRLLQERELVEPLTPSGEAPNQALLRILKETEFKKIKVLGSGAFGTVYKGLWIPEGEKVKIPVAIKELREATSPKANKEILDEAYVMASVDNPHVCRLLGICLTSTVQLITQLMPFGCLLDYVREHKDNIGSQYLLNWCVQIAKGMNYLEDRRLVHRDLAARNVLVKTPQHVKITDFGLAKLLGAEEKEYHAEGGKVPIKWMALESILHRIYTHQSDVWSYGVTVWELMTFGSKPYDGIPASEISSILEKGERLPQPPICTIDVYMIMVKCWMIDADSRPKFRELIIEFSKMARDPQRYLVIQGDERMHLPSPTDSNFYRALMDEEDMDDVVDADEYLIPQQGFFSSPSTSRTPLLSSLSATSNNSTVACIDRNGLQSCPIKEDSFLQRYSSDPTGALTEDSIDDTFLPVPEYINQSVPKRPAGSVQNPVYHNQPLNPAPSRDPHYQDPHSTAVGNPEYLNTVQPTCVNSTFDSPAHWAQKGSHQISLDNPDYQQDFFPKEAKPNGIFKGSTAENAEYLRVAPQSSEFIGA

Row | Compound | IC50 [1, 5] [nM] | IC50 [2, 6] [nM] | IC50 [3, 7] [nM] | IC50 [4, 8] [nM] | IC50 [1] [nM] | IC50 ([2]; BaF3, 72 h, read-out: Ba/F3 (L858R/T790M/C797S) IC50(nM)) [nM] | IC50 ([3]; A-431, 72 h, read-out: A431 EGFR WT IC50(nM)) [nM] | IC50 ([4]; BaF3, 72 h, read-out: Ba/F3 (Del19/T790M/C797S) IC50(nM)) [nM]
1 | COc1cc2c(cc1Nc1ncc(Br)c(Nc3ccccc3P(C)(C)=S)n1)-c1cnn(C)c1CCN2C1CCN(C(C)C)CC1 [Compound 105] |  |  |  |  | 1 to 10 | 10 to 50 | 100 to 1000 | < 10
2 | COc1cc2c(cc1Nc1ncc(Br)c(Nc3ccccc3P(C)(C)=O)n1)-c1cnn(C)c1CC=C2 [Compound 40] | 10 to 50 | 10 to 50 | 100 to 1000 | < 10 |  |  |  | 
3 | COc1nc2c(cc1Nc1ncc(Br)c(Nc3ccc4nccnc4c3NS(C)(=O)=O)n1)-c1cnn(C)c1CCN2 [Compound 81] | 1 to 10 | < 10 | 100 to 1000 | < 10 |  |  |  | 
4 | COc1nc2c(cc1Nc1ncc(Br)c(Nc3ccccc3P(C)(C)=O)n1)-c1cnn(C)c1CCN2 [Compound 51] | 10 to 50 | 10 to 50 | 100 to 1000 | < 10 |  |  |  | 
5 | COc1cc2c(cc1Nc1nc(Nc3ccc4nccnc4c3P(C)(C)=O)c3sccc3n1)-c1cnn(C)c1CCN2C [Compound 61] | 1 to 10 | < 10 | 10 to 50 | < 10 |  |  |  | 
6 | COc1cc2c(cc1Nc1ncc(Br)c(Nc3ccccc3P(C)(C)=O)n1)-c1cnn(C)c1CCN2CCN1CCC(F)CC1 [Compound 41] | 1 to 10 | < 10 | 100 to 1000 | < 10 |  |  |  | 
7 | COc1cc2c(cc1Nc1ncc(C)c(Nc3ccccc3P(C)(C)=O)n1)-c1cnn(C)c1CCN2C [Compound 7] | 1 to 10 | < 10 | 100 to 1000 | < 10 |  |  |  | 
8 | COc1cc2c(cc1Nc1nc(Nc3ccccc3P(C)(C)=O)c3cc[nH]c3n1)-c1cnn(C)c1CCN2C [Compound 36] | 1 to 10 | < 10 | 100 to 1000 | < 10 |  |  |  | 

Now from value to compound, other results behind:

Row | IC50 [1, 5] [nM] | IC50 [2, 6] [nM] | IC50 [3, 7] [nM] | IC50 [4, 8] [nM] | Compound | IC50 [1] [nM] | IC50 ([2]; BaF3, 72 h, read-out: Ba/F3 (L858R/T790M/C797S) IC50(nM)) [nM] | IC50 ([3]; A-431, 72 h, read-out: A431 EGFR WT IC50(nM)) [nM] | IC50 ([4]; BaF3, 72 h, read-out: Ba/F3 (Del19/T790M/C797S) IC50(nM)) [nM]
9 | 1 to 10 | 10 to 50 | 100 to 1000 | 10 to 50 | CNC(=O)c1c(Nc2nc(Nc3cc4c(cc3OC)N(C(C)C)CCc3c-4cnn3C)ncc2Br)ccc2nccnc12 [Compound 129] |  |  |  | 
10 | 1 to 10 | < 10 | 50 to 100 | < 10 | COc1cc2c(cc1Nc1ncc(Br)c(Nc3ccc4nccnc4c3P(C)(C)=O)n1)-c1cn(C)nc1CCN2C [Compound 8] |  |  |  | 
11 | 1 to 10 | < 10 | 100 to 1000 | < 10 | COc1cc2c(cc1Nc1ncc(Br)c(Nc3ccc4nccnc4c3P(C)(C)=O)n1)-c1cnn(C)c1CCC2O (centres unmarked) [Compound 24] |  |  |  | 
12 | 1 to 10 | 50 to 100 | 100 to 1000 | 10 to 50 | COc1cc2c(cc1Nc1ncc(Cl)c(Nc3ccncc3P(C)(C)=O)n1)-c1cnn(C)c1CCN2C(C)C [Compound 95] |  |  |  | 
13 | 1 to 10 | 10 to 50 | 100 to 1000 | < 10 | COc1cc2c(cc1Nc1ncc(Br)c(Nc3ccccc3NS(C)(=O)=O)n1)-c1cnn(C)c1CCN2C(C)C [Compound 54] |  |  |  | 
14 | 1 to 10 | 10 to 50 | 100 to 1000 | 10 to 50 | COc1cc2c(cc1Nc1ncc(Cl)c(Nc3cccnc3P(C)(C)=O)n1)-c1cnn(C)c1CCN2C(C)C [Compound 100] |  |  |  | 
